Data taken from patent US9730874B2, “Nitrone compounds and their use in personal care” (Dow Global Technologies LLC, priority 2014, dated 2017).

Assay: Oxygen Radical Absorbance Capacity (ORAC) antioxidant potential
Format: biochemical
Conditions: calculated from ORAC values (AUC minus blank) vs Trolox; test concentration 100 micromolar
Method: Antioxidant potential is evaluated using the Oxygen Radical Absorbance Capacity (ORAC) protocol. ORAC is a chemical in-vitro method based on the hydrogen atom transfer (HAT) mechanism (see N. Re et al., Free Radical Biology & Medicine, 26 (9/10), 1231 (1997)). ORAC measures antioxidant inhibition of peroxyl radical induced oxidations and thus reflects classical radical chain breaking antioxidant activity by H atom transfer. In this assay, the peroxyl radical reacts with a fluorescent probe to form a non-fluorescent product. This is quantitated using a fluorescence measurement. Antioxidant capacity is determined by decreased rate and amount of product formed over time. This assay depends upon the free radical damage to the fluorescent probe resulting in the change in its fluorescence intensity. The change of fluorescence intensity is an indicator of the degree of free radical damage. In the presence of an antioxidant, the inhibition of free radical damage is reflected in higher fluorescence intensity and can be measured as antioxidant capacity against the free radicals. The uniqueness of ORAC assay is that the reaction is driven to completion. This allows calculation of the area under the curve (AUC) and gives an absolute quantitation of antioxidancy as opposed to relative measurements in many other assays.
As noted, the longer it takes to observe a decrease in fluorescence, the higher the antioxidant (AO) potential. From the AUC for a given antioxidant, the AUC for blank is subtracted to give its ORAC value. The concentration of AO needed to give the same AUC values as Trolox is calculated and used to represent the Trolox equivalent AO Capacity (TEAC). Trolox is ((±)-6-Hydroxy-2,5,7,8-tetramethylchromane-2-carboxylic acid, CAS #53188-07-1), and is used as an internal control.
The ORAC test is conducted in the stilbene-pendant nitrone compounds of Table 1 above (inventive compounds) as well as to Vitamin C, Vitamin E, and the following comparative compounds:
The inventive stilbene-pendant nitrones in the ORAC test solutions were at a concentration of 100 micromolar, while the concentrations of Trolox, Vitamin C, Vitamin E, BHT, PBN+BHT, and VAL-IPHA were at 100 micromolar. The TEAC values calculated from the ORAC values are listed the Table 3.

CC(C)(C)/[N+]([O-])=C/c1ccccc1 [PBN, 2-Phenyl-N-tert-butylnitrone, reference compound]
TEAC (Trolox equivalent AO Capacity): not very high

COc1cc(/C=C/c2ccc(O)c(/C=[N+](/[O-])Cc3ccc(O)cc3O)c2)ccc1O [Sald-24DHBzHA, N-(2-Hydroxy-5-(4-hydroxy-3-methoxystyryl)benzylidene)-1-(2,4-dihydroxyphenyl)methanamine oxide]
TEAC (Trolox equivalent AO Capacity): 7.31

COc1cc(/C=C/c2ccc(O)c(/C=[N+](/[O-])Cc3ccc(O)c(O)c3)c2)ccc1O [Sald-34-DHBzHA, N-(2-Hydroxy-5-(4-hydroxy-3-methoxystyryl)benzylidene)-1-(3,4-dihydroxyphenyl)methanamine oxide]
TEAC (Trolox equivalent AO Capacity): 7.16

COc1cc(/C=C/c2ccc(O)c(/C=[N+](/[O-])Cc3ccccc3)c2)ccc1O [Sald-BzHA, N-(2-Hydroxy-5-(4-hydroxy-3-methoxystyryl)benzylidene)-1-phenylmethanamine oxide]
TEAC (Trolox equivalent AO Capacity): 8.33

COc1cc(/C=C/c2ccc(O)c(/C=[N+](/[O-])Cc3ccc(O)cc3)c2)ccc1O [Sald-pHBzHA, N-(2-Hydroxy-5-(4-hydroxy-3-methoxystyryl)benzylidene)-1-hydroxyphenylmethanamine oxide]
TEAC (Trolox equivalent AO Capacity): 9.02

O=C1O[C@H]([C@@H](O)CO)C(O)=C1O [Vitamin C, reference compound]
TEAC (Trolox equivalent AO Capacity): 0.76

Vitamin E [reference compound]
TEAC (Trolox equivalent AO Capacity): 0.13
